Reference: the supplement of paper PMC10307832

Key:
Experiment in all cases: relative viability (nuclei count vs DMSO), 5 days (fraction); higher = more cells survive
NCI-H1944 = test system: NCI-H1944
Outline: (§1)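 A single step with final 0.05% Triton X-100, 1% formaldehyde and 1 ug/ml Hoechst fixed the cells and stained nuclei 5 days after treatment. Lung cancer cell lines in 1536-well plates had been treated by pin tool the day after seeding with one drug alone or a fixed anchor-drug dose plus five library-drug doses (not always all listed) in √10 steps, and nuclei were counted on 4× images. Relative viability is the ratio of nuclei in treated wells to nuclei in vehicle wells, taken as the median of duplicate plates.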

NCI-H520 = test system: NCI-H520
Outline: as §1

HCC-827 = test system: HCC-827
Outline: as §1

EMC-BAC-2 = test system: EMC-BAC-2
Outline: as §1

NCI-H1563 = test system: NCI-H1563
Outline: as §1

LCLC-97TM1 = test system: LCLC-97TM1
Outline: as §1

NCI-H2085 = test system: NCI-H2085
Outline: as §1

NCI-H23 = test system: NCI-H23
Outline: as §1

HCC-44 = test system: HCC-44
Outline: as §1

NCI-H650 = test system: NCI-H650
Outline: as §1

NCI-H1993 = test system: NCI-H1993
Outline: as §1

NCI-H1793 = test system: NCI-H1793
Outline: as §1

NCI-H2087 = test system: NCI-H2087
Outline: as §1

NCI-H322M = test system: NCI-H322M
Outline: as §1

EPLC-272H = test system: EPLC-272H
Outline: as §1

NCI-H1355 = test system: NCI-H1355
Outline: as §1

H3255 = test system: H3255
Outline: as §1

NCI-H2405 = test system: NCI-H2405
Outline: as §1

UMC-11 = test system: UMC-11
Outline: as §1

LCLC-103H = test system: LCLC-103H
Outline: as §1

SK-MES-1 = test system: SK-MES-1
Outline: as §1

NCI-H1651 = test system: NCI-H1651
Outline: as §1

NCI-H1395 = test system: NCI-H1395
Outline: as §1

## C[C@@H]1CN(CC(=O)Nc2ccc3c(c2)Cc2cccc(-c4cc(=O)cc(N5CCOCC5)o4)c2S3)C[C@H](C)O1 + C[C@]1(O)C[C@@H](c2nc(-c3ccc4ccc(-c5ccccc5)nc4c3)c3c(N)nccn32)C1 [Linsitinib] (partner 1 µM)
NCI-H1944; first compound 0.1265 µM
  relative viability: 1.24
NCI-H1944; first compound 0.4 µM
  relative viability: 1.36
NCI-H1944; first compound 4 µM
  relative viability: 1.22
NCI-H520; first compound 0.04 µM
  relative viability: 1.1
NCI-H520; first compound 0.1265 µM
  relative viability: 0.83
NCI-H520; first compound 0.4 µM
  relative viability: 0.748
NCI-H520; first compound 4 µM
  relative viability: 0.837
HCC-827; first compound 0.04 µM
  relative viability: 1
HCC-827; first compound 0.1265 µM
  relative viability: 0.895
HCC-827; first compound 0.4 µM
  relative viability: 0.978
HCC-827; first compound 4 µM
  relative viability: 0.954
EMC-BAC-2; first compound 0.04 µM
  relative viability: 0.805
EMC-BAC-2; first compound 0.1265 µM
  relative viability: 0.765
EMC-BAC-2; first compound 0.4 µM
  relative viability: 0.757
EMC-BAC-2; first compound 4 µM
  relative viability: 0.77
NCI-H1563; first compound 0.04 µM
  relative viability: 1.17
NCI-H1563; first compound 0.1265 µM
  relative viability: 1.28
NCI-H1563; first compound 0.4 µM
  relative viability: 0.988
NCI-H1563; first compound 4 µM
  relative viability: 1.1
LCLC-97TM1; first compound 0.1265 µM
  relative viability: 0.157
LCLC-97TM1; first compound 0.4 µM
  relative viability: 0.204
LCLC-97TM1; first compound 4 µM
  relative viability: 0.204
NCI-H2085; first compound 0.04 µM
  relative viability: 0.992
NCI-H2085; first compound 0.1265 µM
  relative viability: 0.803
NCI-H2085; first compound 0.4 µM
  relative viability: 0.827
NCI-H2085; first compound 4 µM
  relative viability: 0.724
NCI-H23; first compound 0.04 µM
  relative viability: 0.609
NCI-H23; first compound 0.1265 µM
  relative viability: 0.496
NCI-H23; first compound 0.4 µM
  relative viability: 0.489
NCI-H23; first compound 4 µM
  relative viability: 0.494
HCC-44; first compound 0.04 µM
  relative viability: 0.636
HCC-44; first compound 0.1265 µM
  relative viability: 0.683
HCC-44; first compound 0.4 µM
  relative viability: 0.537
HCC-44; first compound 4 µM
  relative viability: 0.632
NCI-H650; first compound 0.04 µM
  relative viability: 0.85
NCI-H650; first compound 0.1265 µM
  relative viability: 0.729
NCI-H650; first compound 0.4 µM
  relative viability: 0.86
NCI-H650; first compound 4 µM
  relative viability: 0.584
NCI-H1993; first compound 0.04 µM
  relative viability: 0.716
NCI-H1993; first compound 0.1265 µM
  relative viability: 0.733
NCI-H1993; first compound 0.4 µM
  relative viability: 0.848
NCI-H1993; first compound 4 µM
  relative viability: 0.805
NCI-H1793; first compound 0.04 µM
  relative viability: 1.02
NCI-H1793; first compound 0.1265 µM
  relative viability: 0.695
NCI-H1793; first compound 0.4 µM
  relative viability: 0.779
NCI-H1793; first compound 4 µM
  relative viability: 0.445
NCI-H2087; first compound 0.04 µM
  relative viability: 0.939
NCI-H2087; first compound 0.1265 µM
  relative viability: 1
NCI-H2087; first compound 0.4 µM
  relative viability: 0.91
NCI-H2087; first compound 4 µM
  relative viability: 0.772
NCI-H322M; first compound 0.04 µM
  relative viability: 1.01
NCI-H322M; first compound 0.1265 µM
  relative viability: 0.847
NCI-H322M; first compound 0.4 µM
  relative viability: 0.857
NCI-H322M; first compound 4 µM
  relative viability: 0.79
EPLC-272H; first compound 0.04 µM
  relative viability: 1.24
EPLC-272H; first compound 0.1265 µM
  relative viability: 1.12
EPLC-272H; first compound 0.4 µM
  relative viability: 1.17
EPLC-272H; first compound 4 µM
  relative viability: 1.36
NCI-H1355; first compound 0.04 µM
  relative viability: 0.857
NCI-H1355; first compound 0.1265 µM
  relative viability: 0.792
NCI-H1355; first compound 0.4 µM
  relative viability: 0.866
NCI-H1355; first compound 4 µM
  relative viability: 0.815
H3255; first compound 0.04 µM
  relative viability: 0.934
H3255; first compound 0.1265 µM
  relative viability: 1.04
H3255; first compound 0.4 µM
  relative viability: 0.818
H3255; first compound 4 µM
  relative viability: 0.879
NCI-H2405; first compound 0.04 µM
  relative viability: 0.896
NCI-H2405; first compound 0.1265 µM
  relative viability: 1.04
NCI-H2405; first compound 0.4 µM
  relative viability: 0.832
NCI-H2405; first compound 4 µM
  relative viability: 0.881
UMC-11; first compound 0.04 µM
  relative viability: 0.997
UMC-11; first compound 0.1265 µM
  relative viability: 0.993
UMC-11; first compound 0.4 µM
  relative viability: 1.05
UMC-11; first compound 4 µM
  relative viability: 0.857
LCLC-103H; first compound 0.04 µM
  relative viability: 1.09
LCLC-103H; first compound 0.1265 µM
  relative viability: 0.896
LCLC-103H; first compound 0.4 µM
  relative viability: 1.18
LCLC-103H; first compound 4 µM
  relative viability: 1.14
SK-MES-1; first compound 0.04 µM
  relative viability: 1.13
SK-MES-1; first compound 0.1265 µM
  relative viability: 1.06
SK-MES-1; first compound 0.4 µM
  relative viability: 1.02
SK-MES-1; first compound 4 µM
  relative viability: 0.836
NCI-H1651; first compound 0.04 µM
  relative viability: 1.01
NCI-H1651; first compound 0.1265 µM
  relative viability: 0.944
NCI-H1651; first compound 0.4 µM
  relative viability: 0.757
NCI-H1651; first compound 4 µM
  relative viability: 0.96
NCI-H1395; first compound 0.04 µM
  relative viability: 1.14
NCI-H1395; first compound 0.1265 µM
  relative viability: 1.16
NCI-H1395; first compound 0.4 µM
  relative viability: 0.992
NCI-H1395; first compound 4 µM
  relative viability: 0.953
